# Measurements: US7763426B2, “Probes and methods for detection of Escheridia coli and antibiotic resistance” (priority 2004, dated 2010)
# Entries after “also recorded” stand apart in the source; their conditions may differ. {Fluorescein} = fluorescein label (binding site for anti-fluorescein Fab-HRP); {Biotin} = biotin (capture probe anchor)
# Columns and labels:
# [1] = system: 16S rRNA in lysates of uropathogens; assay: Species specificity of uropathogen probe pairs with the electrochemical sensor array (Example 1); format: binding; conditions: probe pairs of Table 1
# [2] = system: bacterial 16S rRNA; assay: Clinical validity study: UTI Chip on blinded clinical urine specimens; format: binding
# Procedure: Amperometric detection of bacterial 16S rRNA. An overview of the electrochemical sensor detection strategy is presented in panel C of FIG. 1. One ml of bacteria in Luria broth, inoculated clean urine, or clinical urine samples was centrifuged at 10,000×g for 5 min. The supernatant was discarded and the bacteria were lysed by resuspension of the pellet in 10 μl of 1 M NaOH and incubation at room temperature for 5 min. In some experiments, addition of 1M NaOH was preceded by resuspension of the bacterial pellet in 10 μl of 0.1% Triton X-100, 2 mM EDTA, and 1 mg/ml lysozyme (Sigma) in 20 mM Tris-HCl, pH 8.0, and incubation at room temperature for 5 min. 50 μl of the detector probe (0.25 μM) in 2.5% bovine serum albumin (Sigma, St. Louis, Mo.) 1 M phosphate buffer, pH 7.4, were added to the bacterial lysate and incubated for 10 min at 65° C. to allow target-probe hybridization. 4 μl of the bacterial lysate/detector probe mixture was deposited on each of the working electrodes in the sensor array and incubated for 15 min at 65° C. in a humidified chamber. After washing and drying, 4 μl of 0.5 U/ml anti-fluorescein horseradish peroxidase (HRP) Fab fragments (Roche, diluted in 0.5% casein in 10 mM phosphate buffered saline, pH 7.4) were deposited on each of the working electrodes for 15 min. After washing and drying, a prefabricated plastic well manifold (GeneFluidics, Monterey Park, Calif.) was bonded to the sensor array. The sensor array was put into the chip reader (FIG. 18) and 50 μl of 3,3′,5,5′-tetramethylbenzidine (TMB), H2O2 solution (K-Blue Low Activity TMB Substrate, Neogen, Lexington, Ky.) was placed on each of the sensors in the array so as to cover all three electrodes of each sensor. Electrochemical measurements are immediately and simultaneously taken for all 16 sensors. For each array, negative control (NC) sensors were tested including the UNI capture probe, detector probe, and 2.5% bovine serum albumin (Sigma, St, Louis, Mo.) in 1 M phosphate buffer, pH 7.4, instead of bacterial lysate. The entire assay protocol was completed within 45 min from the time when bacterial lysis was commenced. Amperometric current vs. time was measured using a multichannel potentiostat (GeneFluidics). The voltage was fixed at −200 mV (vs. reference), and the electroreduction current was measured at 60 s after the HRP redox reaction reached steady state.
# Clinical validity study design. Clinical urine specimens were received from routine urine cultures collected from inpatients and outpatients and submitted to the UCLA Clinical Microbiology Laboratory. Routine plating on tripticase soy agar with 5% sheep blood was performed on each specimen for phenotypic identification and colony counting while an aliquot of each specimen was held at 4° C. overnight. On the day after plating, specimens were selected for inclusion in the study on the basis of a rapid indole test for the purpose of including uropathogens other than Escherichia coli in approximately one-half of the specimens. The other half of the specimens were divided between E. coli-containing specimens and specimens determined to have ““no significant growth” or no growth” (see definitions below). Because most UTIs involve a single uropathogen, specimens determined by the clinical microbiology laboratory to have more than one organism present were excluded. Blinded specimens selected for inclusion in the study were stripped of patient identifiers and any microbiological data before delivery to the research laboratory for testing with the electrochemical sensor array.
# Experiments were performed on all specimens using the 16-sensor array ‘UTI Chip’, in which the UNI, EB, EC, PM, KE, PA, and EF capture probes (defined in Tables 1 and 2) were tested in duplicate. The two remaining sensors served as negative controls (including capture and detector probes without bacterial lysate). […]
# [3] = No Significant Growth specimens
# [4] = specimens with Citrobacter freundii
# [5] = specimens with Citrobacter koseri
# [6] = specimens with Enterobacter aerogenes
# [7] = specimens with Enterobacter cloacae
# [8] = specimens with Enterobacteriaceae
# [9] = specimens with Enterococcus species
# [10] = specimens with Escherichia coli
# [11] = specimens with Gram-negative bacteria
# [12] = specimens with Gram-positive bacteria
# [13] = specimens with Klebsiella pneumoniae
# [14] = specimens with Proteus mirabilis
# [15] = specimens with Pseudomonas aeruginosa
# [16] = specimens with Serratia marcescens
# [17] = specimens with Staph. saprophyticus
substance,measurement,setting,value
"UNI: Universal Bacterial probe pair: capture 797 (27 mer) SEQ ID NO: 13, detector 766 (31 mer) SEQ ID NO: 14 (DNA 1 CATCGTTTACGGCGTGGACTACCAGGG; DNA 2 TATCTAATCCTGTTTGCTCCCCACGCTTTCG; DNA 1: DNA, 5' {Biotin}, backbone and methylation of C not given here; DNA 2: DNA, 5' {Fluorescein}, backbone and methylation of C not given here)",Species detected,[1],"Cf, Ea, Ec, Ef, El, Eo, Ko, Kp,; also recorded: Mm, Pa, Pm, Ss, Sa"
same,Species not detected,[1],None
same,sensitivity for detection of Gram-negative bacteria in clinical urine specimens,[2],100%
same,specificity,[2]; 10/12 no growth specimens,83%
same,overall sensitivity for detection of uropathogens in clinical urine specimens,"[2]; 54/58, 0.30 log unit threshold",93%
same,Mean (range),[2]; All specimens with bacteria,1.28 (0.33-1.84) log10 units over background
same,Positive/Total = Percent,[2]; All specimens with bacteria,54/58 = 93%
same,Mean (range),[2]; No Growth specimens,0.38 (0.34-0.42) log10 units over background
same,Positive/Total = Percent,[2]; No Growth specimens,2/12 = 17%
same,Mean (range),[2]; [3],0.42 (0.31-0.57) log10 units over background
same,Positive/Total = Percent,[2]; [3],5/3 = 63%
same,Mean (range),[2]; [4],1.49 (1.43-1.55) log10 units over background
same,Positive/Total = Percent,[2]; [4],2/2 = 100%
same,Mean (range),[2]; [5],1.23 log10 units over background
same,Positive/Total = Percent,[2]; [5],1/1 = 100%
same,Mean (range),[2]; [6],1.35 (0.93-1.65) log10 units over background
same,Positive/Total = Percent,[2]; [6],5/5 = 100%
same,Mean (range),[2]; [7],1.43 log10 units over background
same,Positive/Total = Percent,[2]; [7],1/1 = 100%
same,Mean (range),[2]; [8],1.32 (0.40-1.84) log10 units over background
same,Positive/Total = Percent,[2]; [8],47/47 = 100%
same,Mean (range),[2]; [9],0.92 (0.33-1.78) log10 units over background
same,Positive/Total = Percent,[2]; [9],5/8 = 63%
same,Mean (range),[2]; [10],1.30 (0.54-1.77) log10 units over background
same,Positive/Total = Percent,[2]; [10],26/26 = 100%
same,Mean (range),[2]; [11],1.32 (0.40-1.84) log10 units over background
same,Positive/Total = Percent,[2]; [11],48/48 = 100%
same,Mean (range),[2]; [12],0.95 (0.33-1.78) log10 units over background
same,Positive/Total = Percent,[2]; [12],6/10 = 60%
same,Mean (range),[2]; [13],1.22 (0.40-1.84) log10 units over background
same,Positive/Total = Percent,[2]; [13],8/8 = 100%
same,Mean (range),[2]; [14],1.41 (1.16-1.66) log10 units over background
same,Positive/Total = Percent,[2]; [14],3/3 = 100%
same,Mean (range),[2]; [15],1.33 log10 units over background
same,Positive/Total = Percent,[2]; [15],1/1 = 100%
same,Mean (range),[2]; [16],1.67 log10 units over background
same,Positive/Total = Percent,[2]; [16],1/1 = 100%
same,Mean (range),[2]; [17],1.10 log10 units over background
same,Positive/Total = Percent,[2]; [17],1/2 = 50%
